The values below come from paper PMC6484020, “Discovery of selective activators of PRC2 mutant EED-I363M” (Scientific Reports, 2019).

Experiment [1] deals with T1, PRC2-WT (EED/EZH2/SUZ12) (Homo sapiens, UniProt O75530+Q15910).
T1 construct: the full lengths of two components of the PRC2 complex, EED(1–441) and EZH2(1–751); EED(1–441) and EZH2(1–751) were cloned into pFastBac-Dual; made in house; host or cells: Sf9 insect cells (baculovirus co-infection)
As to the kind of experiment: Methyltransferase scintillation proximity assay, H3 (21-44) peptide substrate. It counts as biochemical. As to conditions: for effect on catalytic activity of PRC2-WT: H3 peptide substrate, compound up to 100 µM, normalized to activity without compound; for kcat, H3(21–44), PRC2-WT: in the presence of 20 µM compound, peptide substrate, mean ± SD, n = 3. On the procedure: (§1) Methyltransferase activity assay for WT PRC2 (EED/EZH2/SUZ12) or mutant PRC2-EED-I363M (EED/EZH2/SUZ12) was performed by monitoring the incorporation of tritium-labeled methyl group to lysine 27 of H3 (21–44) peptide using Scintillation Proximity Assay (SPA) or to human nucleosome using a filter-based assay. The enzymatic reactions were performed at 23 °C with 1 hour incubation of 10 µl reaction mixture in 20 mM Tris-HCl, pH 8, 5 mM DTT, and 0.01% Triton X-100 containing 2 µM of ^3H-SAM (Cat.# NET155V250UC; Perkin Elmer; www.perkinelmer.com), 1 µM of biotinylated H3 (21–44), 20 nM PRC2-WT or PRC2-mutant. To stop the reactions, 10 µL of 7.5 M Guanidine hydrochloride was added, followed by 200 µl of buffer (20 mM Tris, pH 8.0), mixed and transferred to a 96-well Streptavidin coated Flash-plate (Cat. # SMP410A001PK, PerkinElmer, http://www.perkinelmer.ca). After mixing, the mixtures in Flash-plate were incubated for 2 hours and the CPM counts were measured using Topcount plate reader (Perkin Elmer, www.perkinelmer.com).
(§2) The CPM counts in the absence of compound for each dataset were defined as 100% activity. In the absence of the enzyme, the CPM counts in each data set were defined as background (0%). All enzymatic reactions were performed in triplicate and the data were analyzed by GraphPad Prism 7 software.
(§3) Supplementary Figure S5. Testing the effect of 9 compounds on activity of WT- and EED-I363M mutant PRC2 complexes. Activities of WT- and mutant-PRC2 in the presence of each compound are normalized to activity of each protein complex in the absence of compound as 100%.
Experiments were performed using 20 nM of each WT or mutant PRC2 trimeric (EED/EZH2/SUZ12) complexes, 2 µM 3H-SAM, 1 µM biotin-H3 (21-44), and up to 100 µM of compounds, 20 mM Tris-HCl pH 8.0, 5 mM DTT and 0.01% Triton X-100. […]
(§4) Supplementary Figure S7. Determination of kcat values for WT- and EED- I363M mutant trimeric PRC2 complexes in the presence of activators. The kcat values were determined using (A) H3 (21-44) in the presence of 20 µM of each compound or (B) human nucleosome as a substrate in the presence of 200 µM of each compound. Experiments were […]
(§5) performed in triplicate under the following assay conditions:
(§6) (A) Peptide as substrate: 20 nM wildtype or EED-I363M mutant PRC2 (EED/EZH2/SUZ12), 2 µM biotinylated-H3 (21-44) peptide, various concentrations of 3H-SAM (up to 5 µM). […]
(§7) Reactions with both substrates were incubated for 30 min at 23°C in 20 mM Tris-HCl pH 8.0, 5

The target in experiment [2] is T2, PRC2-EED-I363M (EED/EZH2/SUZ12) (Homo sapiens, UniProt O75530+Q15910, I363M).
T2 construct: the full lengths of two components of the PRC2 complex, EED(1–441) and EZH2(1–751); EED(1–441) and EZH2(1–751) were cloned into pFastBac-Dual; made in house; host or cells: Sf9 insect cells (baculovirus co-infection)
The experiment is described as above. In kind it is biochemical. Particulars: for effect on catalytic activity of PRC2-EED-I363M: H3 peptide substrate, normalized to activity without compound; for effect on catalytic activity of PRC2-EED-I363M / EC50: compound up to 100 µM; for EC50: 20 nM enzyme, 5 µM 3H-SAM, 2 µM biotin-H3 (21-44), 30 min, 23 °C, read-out: EC50 for activation of PRC2-EED-I363M; for increase of PRC2-EED-I363M kcat values: 20 µM compound, peptide as substrate; for kcat, H3(21–44), PRC2-EED-I363M: in the presence of 20 µM compound, peptide substrate, mean ± SD, n = 3. On the procedure:
as §1, §2, §3
Experiments were performed using 20 nM of each WT or mutant PRC2 trimeric (EED/EZH2/SUZ12) complexes, 2 µM 3H-SAM, 1 µM biotin-H3 (21-44), and up to 100 µM of compounds, 20 mM Tris-HCl pH 8.0, 5 mM DTT and 0.01% Triton X-100.
Supplementary Figure S6. EC50 determination for activators. The EC50 values were determined […]
PRC2 mutant (EED/EZH2/SUZ12), 5 µM 3H-SAM, 2 µM biotin-H3 (21-44) and compound concentrations up to 100 µM. Reactions were incubated for 30 min at 23°C in 20 mM Tris-HCl pH 8.0, 5 mM DTT, 0.01% Triton X-100). Experiments were performed in triplicate. Data shown […]
as §4, §5, §6, §7

Another experiment has as its target wildtype EED. Particulars: cited from earlier work.
The target of experiment [3] is T2, PRC2-EED-I363M (EED/EZH2/SUZ12). As to the kind of experiment: Filter-based methyltransferase assay, human nucleosome substrate. In kind it is biochemical. Particulars: for increase of PRC2-EED-I363M kcat values: human nucleosomes as substrate; for kcat, Human nucleosome, PRC2-EED-I363M: in the presence of 200 µM compound, nucleosome substrate, mean ± SD, n = 3. The protocol: (§8) Figure 3 Effect of compound 1, 2 and 4 on activity of PRC2-WT and PRC2-EED-I363M. Effect of the selected compounds on activity of PRC2-WT and PRC2-EED-I363M mutant were assessed using human nucleosome as a substrate. Experiments were performed in triplicate using 200 nM of enzyme, 2 µM 3H-SAM and 5 µM human nucleosome and 200 µM compounds incubated for 30 min at 23 °C in 20 mM Tris-HCl pH 8.0, 5 mM DTT, 0.01% Triton X-100.
(§9) A filter-based assay was used for human nucleosome as a substrate. The reactions were carried out at 23 °C with 0.5 hour incubation of 10 µl reaction mixture in 20 mM Tris-HCl, pH 8, 5 mM DTT, and 0.01% Triton X-100 containing 2 µM of ^3H-SAM (Cat.# NET155V250UC; Perkin Elmer; www.perkinelmer.com), 5 µM of human nucleosome, 200 nM PRC2-WT or PRC2 mutant. To stop the reactions, 50 µl of 10% TCA was added, mixed and transferred to filter-plates (Millipore; Cat.# MSFBN6B10; www.millipore.com). Plates were centrifuged at 2000 rpm (Allegra X-15R - Beckman Coulter, Inc.) for 2 min followed by two additional 10% TCA wash and one ethanol wash (180 µl) followed by centrifugation. Plates were dried and 100 µl MicroO (MicroScint-O; Cat.# 6013611, Perkin Elmer; www.perkinelmer.com) was added to each well, centrifuged and removed. 70 µl of MicroO was added again and CPM was measured using Topcount plate reader.
as §2, §4
(§10) performed in triplicate under the following assay conditions: […]
(§11) (B) Human nucleosome as a substrate: 200 nM wildtype or EED-I363M mutant trimeric PRC2 (EED/EZH2/SUZ12), various concentrations of 3H-SAM (up to 5 µM) and 5 µM human […]
as §7

Experiment [4] concerns the target T1, PRC2-WT (EED/EZH2/SUZ12). Described as above. In kind it is biochemical. As to conditions: for kcat, Human nucleosome, PRC2-WT: in the presence of 200 µM compound, nucleosome substrate, mean ± SD, n = 3. On the procedure: as §8, §9, §2, §4, §10, §11, §7

Entries after “also recorded” stand apart in the source; their conditions may differ. Where a SMILES comes first, the peptide text is derived from it. [ ]: non-standard residue; d: D form. Lys(Me3) = C[N+](C)(C)CCCC[C@H](N)C(=O)O

T1 sequence (O75530 whole entry): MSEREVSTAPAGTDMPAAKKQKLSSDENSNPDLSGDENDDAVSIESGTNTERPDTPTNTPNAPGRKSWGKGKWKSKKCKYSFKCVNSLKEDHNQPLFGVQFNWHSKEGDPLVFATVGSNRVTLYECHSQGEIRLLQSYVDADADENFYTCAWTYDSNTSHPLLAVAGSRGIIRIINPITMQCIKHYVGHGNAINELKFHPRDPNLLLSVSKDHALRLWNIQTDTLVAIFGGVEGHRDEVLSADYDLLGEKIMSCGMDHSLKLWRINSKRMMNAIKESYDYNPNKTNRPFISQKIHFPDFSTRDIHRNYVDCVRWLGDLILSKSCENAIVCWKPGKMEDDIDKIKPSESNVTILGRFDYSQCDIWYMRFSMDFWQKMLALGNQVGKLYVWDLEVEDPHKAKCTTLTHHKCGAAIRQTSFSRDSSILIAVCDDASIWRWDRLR
T1 sequence (Q15910 1-751 isoform Q15910-2): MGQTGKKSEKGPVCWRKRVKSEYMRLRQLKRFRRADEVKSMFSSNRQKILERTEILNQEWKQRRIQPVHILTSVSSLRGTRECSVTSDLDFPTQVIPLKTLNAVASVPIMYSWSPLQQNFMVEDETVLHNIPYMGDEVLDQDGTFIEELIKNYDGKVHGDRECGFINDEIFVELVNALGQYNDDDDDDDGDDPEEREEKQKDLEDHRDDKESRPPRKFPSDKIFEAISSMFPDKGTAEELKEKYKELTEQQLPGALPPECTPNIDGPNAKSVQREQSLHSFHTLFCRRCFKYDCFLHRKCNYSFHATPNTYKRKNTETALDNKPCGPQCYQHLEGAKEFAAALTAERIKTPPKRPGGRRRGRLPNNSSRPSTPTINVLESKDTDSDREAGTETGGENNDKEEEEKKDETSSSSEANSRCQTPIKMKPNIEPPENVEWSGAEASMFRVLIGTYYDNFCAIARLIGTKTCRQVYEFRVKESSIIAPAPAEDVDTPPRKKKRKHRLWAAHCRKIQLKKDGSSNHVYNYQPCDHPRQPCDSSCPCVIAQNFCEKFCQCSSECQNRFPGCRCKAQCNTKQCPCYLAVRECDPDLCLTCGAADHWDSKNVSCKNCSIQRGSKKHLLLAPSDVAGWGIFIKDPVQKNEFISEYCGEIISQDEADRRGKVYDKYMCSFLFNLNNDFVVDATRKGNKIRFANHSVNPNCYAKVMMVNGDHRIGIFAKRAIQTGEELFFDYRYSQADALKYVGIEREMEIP
T1 sequence (Q15022 whole entry partner): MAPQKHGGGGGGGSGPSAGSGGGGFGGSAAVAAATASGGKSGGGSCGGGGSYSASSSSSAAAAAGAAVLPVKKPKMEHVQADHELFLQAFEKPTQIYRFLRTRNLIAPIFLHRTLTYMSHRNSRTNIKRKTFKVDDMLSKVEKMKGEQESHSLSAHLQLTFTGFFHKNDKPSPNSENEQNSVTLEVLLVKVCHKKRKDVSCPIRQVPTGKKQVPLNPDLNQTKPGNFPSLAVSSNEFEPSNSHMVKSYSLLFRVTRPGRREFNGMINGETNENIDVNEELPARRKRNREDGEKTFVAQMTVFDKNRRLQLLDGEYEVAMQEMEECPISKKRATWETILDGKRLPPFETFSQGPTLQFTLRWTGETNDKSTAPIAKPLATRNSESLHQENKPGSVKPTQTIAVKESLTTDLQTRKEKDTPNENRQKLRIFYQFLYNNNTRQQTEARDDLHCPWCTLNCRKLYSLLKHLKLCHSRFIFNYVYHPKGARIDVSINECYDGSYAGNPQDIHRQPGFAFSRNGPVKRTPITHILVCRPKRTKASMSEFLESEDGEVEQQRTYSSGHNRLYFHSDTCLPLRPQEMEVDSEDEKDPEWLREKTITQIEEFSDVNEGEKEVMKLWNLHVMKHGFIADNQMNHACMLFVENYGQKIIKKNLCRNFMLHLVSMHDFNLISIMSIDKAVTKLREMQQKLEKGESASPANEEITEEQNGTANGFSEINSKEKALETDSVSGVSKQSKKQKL
T2 sequence (O75530 whole entry I363M): as the sequence (O75530 whole entry) above, with I363M counted along it
T2 sequence (Q15910 1-751 isoform Q15910-2, stated change not applied): as the sequence (Q15910 1-751 isoform Q15910-2) above
T2 sequence (Q15022 whole entry partner): as the sequence (Q15022 whole entry partner) above

One may read the Kd as the concentration at which binding is half-saturated. For the compound `CC(C)C[C@H](NC(=O)[C@H](Cc1ccccc1)NC(=O)[C@H](CCCCN(C)C(C)C)NC(=O)[C@@H]1C[C@@H]2CCCC[C@@H]2N1)C(N)=O` [UNC5114, reference compound], the “effect on catalytic activity of PRC2-WT” value on PRC2-WT (EED/EZH2/SUZ12) [1] is on record as “antagonized”. Further, the “effect on catalytic activity of PRC2-EED-I363M” value (“effect … of PRC2-EED-I363M” for short) in experiment [2] is on record as “minimal effects”. At wildtype EED, the Kd is 700 to 1100 nM.
One may read the EC50 as the concentration that produces a half-maximal response. For the compound `CC(C)C[C@H](NC(=O)[C@H](Cc1ccccc1)NC(=O)[C@H](CCCC[N+](C)(C)C)NC(=O)[C@H](CCCNC(=N)N)NC(=O)[C@@H]1CCCN1)C(N)=O` [compound 1] (H-PR[Lys(Me3)]FL-NH2), on PRC2-WT (EED/EZH2/SUZ12) [1], the “effect on catalytic activity of PRC2-WT” value is reported as “minimal effects” and the “kcat, H3(21–44), PRC2-WT” value came to 0.00694 ± 0.00014 s⁻¹. Besides, in experiment [2], the concentration giving a half-maximal response (EC50) was 2300 ± 400 nM; the “increase of PRC2-EED-I363M kcat values” is recorded as “more than 2 fold”; the “effect … of PRC2-EED-I363M” value is given as “significant increase”; the “kcat, H3(21–44), PRC2-EED-I363M” value was 0.00556 ± 0.00028 s⁻¹. In addition, in experiment [3], the “increase of PRC2-EED-I363M kcat values” is “about 2 fold” and the “kcat, Human nucleosome, PRC2-EED-I363M” value turned out to be 0.000361 ± 2.8e-06 s⁻¹. The “kcat, Human nucleosome, PRC2-WT” value on PRC2-WT (EED/EZH2/SUZ12) [4] is 0.000472 ± 1.4e-05 s⁻¹.
On to `CC(C)C[C@H](NC(=O)[C@H](Cc1ccccc1)NC(=O)[C@H](CCCC[N+](C)(C)C)NC(=O)[C@H](CCCCN)NC(=O)[C@@H]1CCCN1)C(N)=O` [compound 2] (H-PK[Lys(Me3)]FL-NH2), for which, at PRC2-WT (EED/EZH2/SUZ12) [1], the “effect on catalytic activity of PRC2-WT” value is reported as “minimal effects” and the “kcat, H3(21–44), PRC2-WT” value worked out at 0.00667 ± 0.00014 s⁻¹. Also, in experiment [2], the EC50 worked out at 2400 ± 400 nM; the “increase of PRC2-EED-I363M kcat values” is reported as “more than 2 fold”; the “effect … of PRC2-EED-I363M” value was “significant increase”; the “kcat, H3(21–44), PRC2-EED-I363M” value was determined as 0.00583 ± 0.00028 s⁻¹. In addition, in experiment [3], the “increase of PRC2-EED-I363M kcat values” is recorded as “about 2 fold” and the “kcat, Human nucleosome, PRC2-EED-I363M” value is 0.000417 ± 5.6e-06 s⁻¹. Also, on PRC2-WT (EED/EZH2/SUZ12) [4] (human nucleosome as substrate), the “effect on PRC2-WT catalytic activity” value is “weak inhibitor”. The “kcat, Human nucleosome, PRC2-WT” value at PRC2-WT (EED/EZH2/SUZ12) [4] is 0.000444 ± 1.1e-05 s⁻¹.
As for `CC(C)CC(NC(=O)C(Cc1ccccc1)NC(=O)C(CCCC[N+](C)(C)C)NC(=O)C1CC2CCCCC2N1CCCCN)C(N)=O` (stereo not drawn) [compound 3], the “effect on catalytic activity of PRC2-WT” value on PRC2-WT (EED/EZH2/SUZ12) [1] was “highest inhibition; also recorded: dose-dependent inhibitory potency”. In addition, the “effect … of PRC2-EED-I363M” value in experiment [2] is given as “does not show any activator effect”.
